Experimental data taken from patent publication US10874745B2, “Antimicrobial peptides and methods of treating gram-negative pathogens: polar and non-polar face analogs” (priority 2017, dated 2020).
≈ marks a conversion by molar mass, not a printed value. Where “and” joins values, the source holds several entries; their conditions need not be identical. Equal entries are not always repeated. Where two headings read alike, the source gives them in different places. Non-standard residues stand in square brackets, D forms with d. Residues, ends and D or L forms follow the SMILES beside them. *: point of attachment. MeO(CH2CH2O)23CH2CH2CO = COCCOCCOCCOCCOCCOCCOCCOCCOCCOCCOCCOCCOCCOCCOCCOCCOCCOCCOCCOCCOCCOCCOCCOCCC(=O)*; dDab = NCC[C@@H](N)C(=O)O; dDap = NC[C@@H](N)C(=O)O

Tests used:
Hemolytic activity = format: cell-based, human; conditions: 1% human erythrocytes (red blood cells), pH 7.4
Description: (§1) Hemoglobin release was determined spectrophotometrically at 570 nm. […] […] […] With the peptides used in this study the inventors used the HC30/MIC ratio value to calculate the therapeutic index.

human red blood cells = assay: Hemolytic activity; format: cell-based
Description: as §1

[1] = tested on: A. baumannii strains resistant to Polymyxin B and Colistin; format: cell-based
Description: Gram-Negative Bacterial Strains used in this Study: All the A. baumannii strains used in this study were 1) obtained from the collection of Dr. Anthony A. Campagnari at the University of Buffalo and originally isolated from different patients and organs/tissues (strain 649, blood; strain 689, groin; strain 759, gluteus; strain 884, axilla; strain 985, pleural fluid); 2) were purchased from the American Type Culture Collection (ATCC, Manassas, Va., USA) (strain ATCC 17978, fatal meningitis; and strain ATCC 19606, urine); 3) obtained from MERCK (M89941, M89949, M89951, M89952, M89953, M89955 and M89963). These seven A. baumannii strains were resistant to polymyxin B and polymyxin E (Colistin).
Measurement of Antimicrobial Activity (MIC): The minimal inhibitory concentration (MIC) is defined as the lowest peptide concentration that inhibited bacterial growth. MICs were measured by a standard microtiter dilution method in Mueller Hinton (MH) medium. Briefly, cells were grown overnight at 37° C. in MH broth and were diluted in the same medium. […] The plates were incubated at 37° C. for 24 h, and the MICs were determined.

[2] = 50% hemolysis of human red blood cells after 18 hours at 37° C., read-out: HC50

| SMILES | HC50 at 18 h (Hemolytic activity; [2]) | Hemolysis of human red blood cells, in words (human red blood cells; FIG. 10) | HC50 at 18 h (Hemolytic activity; human) | MIC ([1]; strain MB9941 (Table 9C)) [µM] | MIC ([1]; strain MB9949 (Table 9C)) [µM] | MIC ([1]; strain MB9951 (Table 9C)) [µM] | MIC ([1]; strain MB9952 (Table 9C)) [µM] | MIC ([1]; strain MB9953 (Table 9C)) [µM] | MIC ([1]; strain MB9955 (Table 9C)) [µM] | MIC ([1]; strain MB9963 (Table 9C)) [µM] | HC50 (human red blood cells; 50% hemolysis of human red blood cells after 18 hours at 37° C.) [µM] | HC50 (human red blood cells) [µM] |
| --- | --- | --- | --- | --- | --- | --- | --- | --- | --- | --- | --- | --- |
| CC(=O)N[C@H](CCCCN)C(=O)N[C@H](CC(C)C)C(=O)N[C@H](CCN)C(=O)N[C@H](CO)C(=O)N[C@H](CC(C)C)C(=O)N[C@H](CC(C)C)C(=O)N[C@H](CCN)C(=O)N[C@@H](C(=O)N[C@H](CC(C)C)C(=O)N[C@H](CO)C(=O)N[C@H](CCN)C(=O)N[C@H](C)C(=O)N[C@H](CCCCN)C(=O)N[C@H](C)C(=O)N[C@H](C)C(=O)N[C@H](CCCCN)C(=O)N[C@H](CC(C)C)C(=O)N[C@H](CCN)C(=O)N[C@@H](C(=O)N[C@H](CC(C)C)C(=O)N[C@H](CC(C)C)C(=O)N[C@H](CCN)C(=O)N[C@H](C)C(=O)N[C@H](CC(C)C)C(=O)N[C@H](CO)C(=O)N[C@H](CO)C(N)=O)[C@H](C)O)[C@H](C)O [Peptide D102, Ac-KL(Dbu)SLL(Dbu)TLS(Dbu)AKAAKL(Dbu)TLL(Dbu)ALSS-amide] (Ac-[dK][dL][dDab][dS][dL][dL][dDab][dT][dL][dS][dDab][dA][dK][dA][dA][dK][dL][dDab][dT][dL][dL][dDab][dA][dL][dS][dS]-NH2) | > 2000 µg/mL and > 708 µM | basically no hemolysis |  |  |  |  |  |  |  |  |  |  |
| CC(=O)N[C@H](CCCCN)C(=O)N[C@H](CC(C)C)C(=O)N[C@H](CCN)C(=O)N[C@H](CO)C(=O)N[C@H](CC(C)C)C(=O)N[C@H](CC(C)C)C(=O)N[C@H](CCN)C(=O)N[C@@H](C(=O)N[C@H](CC(C)C)C(=O)N[C@H](CO)C(=O)N[C@H](C)C(=O)N[C@H](C)C(=O)N[C@H](CCCCN)C(=O)N[C@H](CCN)C(=O)N[C@H](CCN)C(=O)N[C@H](CCCCN)C(=O)N[C@H](CC(C)C)C(=O)N[C@H](C)C(=O)N[C@@H](C(=O)N[C@H](CC(C)C)C(=O)N[C@H](CC(C)C)C(=O)N[C@H](CCN)C(=O)N[C@H](C)C(=O)N[C@H](CC(C)C)C(=O)N[C@H](CO)C(=O)N[C@H](CCN)C(N)=O)[C@H](C)O)[C@H](C)O [Peptide D89, Ac-KL(Dbu)SLL(Dbu)TLSAAK(Dbu)(Dbu)KLATLL(Dbu)ALS(Dbu)-amide] (Ac-[dK][dL][dDab][dS][dL][dL][dDab][dT][dL][dS][dA][dA][dK][dDab][dDab][dK][dL][dA][dT][dL][dL][dDab][dA][dL][dS][dDab]-NH2) |  |  | > 3000 µg/mL and > 1.11 mM | 0.7 (≈ 1.89 µg/mL) | 0.7 (≈ 1.89 µg/mL) | 0.7 (≈ 1.89 µg/mL) | 0.7 (≈ 1.89 µg/mL) | 0.7 (≈ 1.89 µg/mL) | 0.7 (≈ 1.89 µg/mL) | 0.7 (≈ 1.89 µg/mL) |  |  |
| COCCOCCOCCOCCOCCOCCOCCOCCOCCOCCOCCOCCOCCOCCOCCOCCOCCOCCOCCOCCOCCOCCOCCOCCC(=O)N[C@H](CCCCN)C(=O)N[C@H](CC(C)C)C(=O)N[C@H](CCN)C(=O)N[C@H](CO)C(=O)N[C@H](CC(C)C)C(=O)N[C@H](CC(C)C)C(=O)N[C@H](CCN)C(=O)N[C@@H](C(=O)N[C@H](CC(C)C)C(=O)N[C@H](CO)C(=O)N[C@H](CCN)C(=O)N[C@H](C)C(=O)N[C@H](CCCCN)C(=O)N[C@H](C)C(=O)N[C@H](C)C(=O)N[C@H](CCCCN)C(=O)N[C@H](CC(C)C)C(=O)N[C@H](CCN)C(=O)N[C@@H](C(=O)N[C@H](CC(C)C)C(=O)N[C@H](CC(C)C)C(=O)N[C@H](CCN)C(=O)N[C@H](C)C(=O)N[C@H](CC(C)C)C(=O)N[C@H](CO)C(=O)N[C@H](CCN)C(N)=O)[C@H](C)O)[C@H](C)O [Peptide D86PEG1, m-dPEG24-D86] ({MeO(CH2CH2O)23CH2CH2CO}-[dK][dL][dDab][dS][dL][dL][dDab][dT][dL][dS][dDab][dA][dK][dA][dA][dK][dL][dDab][dT][dL][dL][dDab][dA][dL][dS][dDab]-NH2) | 363 µg/mL and 137 µM |  |  | 1.1 (≈ 4.13 µg/mL) | 2.1 (≈ 7.88 µg/mL) | 4.1 (≈ 15.4 µg/mL) | 4.1 (≈ 15.4 µg/mL) | 8.3 (≈ 31.2 µg/mL) | 1.1 (≈ 4.13 µg/mL) | 4.1 (≈ 15.4 µg/mL) | 136.7 |  |
| CC(=O)N[C@H](CCCCN)C(=O)N[C@H](CC(C)C)C(=O)N[C@H](CN)C(=O)N[C@H](CO)C(=O)N[C@H](CC(C)C)C(=O)N[C@H](CC(C)C)C(=O)N[C@H](CN)C(=O)N[C@@H](C(=O)N[C@H](CC(C)C)C(=O)N[C@H](CO)C(=O)N[C@H](C)C(=O)N[C@H](C)C(=O)N[C@H](CCCCN)C(=O)N[C@H](CN)C(=O)N[C@H](CN)C(=O)N[C@H](CCCCN)C(=O)N[C@H](CC(C)C)C(=O)N[C@H](C)C(=O)N[C@@H](C(=O)N[C@H](CC(C)C)C(=O)N[C@H](CC(C)C)C(=O)N[C@H](CN)C(=O)N[C@H](C)C(=O)N[C@H](CC(C)C)C(=O)N[C@H](CO)C(=O)N[C@H](CN)C(N)=O)[C@H](C)O)[C@H](C)O [Peptide D106, Ac-KL(Dpr)SLL(Dpr)TLSAAK(Dpr)(Dpr)KLATLL(Dpr)ALs(Dpr)-amide] (Ac-[dK][dL][dDap][dS][dL][dL][dDap][dT][dL][dS][dA][dA][dK][dDap][dDap][dK][dL][dA][dT][dL][dL][dDap][dA][dL][dS][dDap]-NH2) |  |  | 889 µg/mL and 340 µM | 0.8 (≈ 2.09 µg/mL) | 0.8 (≈ 2.09 µg/mL) | 1.5 (≈ 3.92 µg/mL) | 0.8 (≈ 2.09 µg/mL) | 0.8 (≈ 2.09 µg/mL) | 0.4 (≈ 1.05 µg/mL) | 0.8 (≈ 2.09 µg/mL) |  | 340.2 |
| CC(=O)N[C@H](CCCCN)C(=O)N[C@H](CC(C)C)C(=O)N[C@H](CCCN)C(=O)N[C@H](CO)C(=O)N[C@H](CC(C)C)C(=O)N[C@H](CC(C)C)C(=O)N[C@H](CCCN)C(=O)N[C@@H](C(=O)N[C@H](CC(C)C)C(=O)N[C@H](CO)C(=O)N[C@H](CCCN)C(=O)N[C@H](C)C(=O)N[C@H](CCCCN)C(=O)N[C@H](C)C(=O)N[C@H](C)C(=O)N[C@H](CCCCN)C(=O)N[C@H](CC(C)C)C(=O)N[C@H](CCCN)C(=O)N[C@@H](C(=O)N[C@H](CC(C)C)C(=O)N[C@H](CC(C)C)C(=O)N[C@H](CCCN)C(=O)N[C@H](C)C(=O)N[C@H](CC(C)C)C(=O)N[C@H](CO)C(=O)N[C@H](CCCN)C(N)=O)[C@H](C)O)[C@H](C)O [Peptide D85, Ac-KL(Orn)SLL(Orn)TLS(Orn)AKAAKL(Orn)TLL(Orn)ALS(Orn)-amide] |  |  | 406 µg/mL | 0.7 (≈ 1.95 µg/mL) | 0.7 (≈ 1.95 µg/mL) | 0.7 (≈ 1.95 µg/mL) | 0.4 (≈ 1.11 µg/mL) | 0.4 (≈ 1.11 µg/mL) | 0.4 (≈ 1.11 µg/mL) | 0.4 (≈ 1.11 µg/mL) |  |  |
| CC(=O)N[C@H](CCCCN)C(=O)N[C@H](CC(C)C)C(=O)N[C@H](CN)C(=O)N[C@H](CO)C(=O)N[C@H](CC(C)C)C(=O)N[C@H](CC(C)C)C(=O)N[C@H](CN)C(=O)N[C@@H](C(=O)N[C@H](CC(C)C)C(=O)N[C@H](CO)C(=O)N[C@H](CN)C(=O)N[C@H](C)C(=O)N[C@H](CCCCN)C(=O)N[C@H](C)C(=O)N[C@H](C)C(=O)N[C@H](CCCCN)C(=O)N[C@H](CC(C)C)C(=O)N[C@H](CN)C(=O)N[C@@H](C(=O)N[C@H](CC(C)C)C(=O)N[C@H](CC(C)C)C(=O)N[C@H](CN)C(=O)N[C@H](C)C(=O)N[C@H](CC(C)C)C(=O)N[C@H](CO)C(=O)N[C@H](CN)C(N)=O)[C@H](C)O)[C@H](C)O [Peptide D105, Ac-KL(Dpr)SLL(Dpr)TLS(Dpr)AKAAKL(Dpr)TLL(Dpr)ALS(Dpr)-amide] |  |  | > 3000 µg/mL and > 1.15 mM | 0.8 (≈ 2.09 µg/mL) | 0.8 (≈ 2.09 µg/mL) | 3.0 (≈ 7.84 µg/mL) | 0.8 (≈ 2.09 µg/mL) | 3.0 (≈ 7.84 µg/mL) | 0.8 (≈ 2.09 µg/mL) | 1.5 (≈ 3.92 µg/mL) |  |  |
